Reference: the supplement of paper PMC8671470
± gives the standard deviation of the averaged measurements.

Columns and labels:
Conditions in all cases: 72 h
MV4-11 [1] = system: MV4-11
In short: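 In 384-well plates holding acoustically pre-printed compounds at five tenfold doses from 1 to 10,000 nM, in duplicate, fifteen myeloid leukaemia cell lines were grown in RPMI 1640 for 72 h at 37 °C with 5% CO2. Luminescent ATP viability was scaled between vehicle and a positive control at 10 µM. The IC50 was then taken from log-logistic dose–response fits with four parameters.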

HL-60 [2] = test: cell viability (% survival relative to DMSO control); higher = less cytotoxic
In short: (§1)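 In 384-well plates, the full library was rescreened in duplicate on HL-60 cells in RPMI 1640 with 10% FBS, at 1–10,000 nM in five tenfold concentrations, for 72 h at 37 °C, 5% CO2. Each run also held DMSO or 100 nM of one of three metabolic inhibitors. Viability was measured by CellTiter-Glo and normalised to DMSO wells and to wells with proteasome inhibitor, present at 10 μM. Any area under the curve comes from four-parameter log-logistic fitting with drc and PharmacoGx.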

BV-173 = test: cell viability (% survival relative to DMSO control, bortezomib = 0%); higher = less cytotoxic
In short: (§2)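 Reported values are percent survival from duplicate wells, averaged. Fifteen myeloid leukaemia cell lines were treated in 384-well plates with compounds at 1, 10, 100, 1000 or 10000 nM for 72 h at 37 °C in 5% CO2. Signals from CellTiter-Glo luminescence were scaled with vehicle as 100% and a 10 µM positive control as 0%.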

HEL = test: as above
In short: as §2

HL-60 [3] = test: as above
In short: as §2

K-562 = test: as above
In short: as §2

KCL-22 = test: as above
In short: as §2

KG-1 = test: as above
In short: as §2

KU-812 = test: as above
In short: as §2

LAMA-84 = test: as above
In short: as §2

ML-2 = test: as above
In short: as §2

MOLM-13 = test: as above
In short: as §2

MV4-11 [4] = test: as above
In short: as §2

Mono-Mac-6 = test: as above
In short: as §2

NOMO-1 = test: as above
In short: as §2

SHI-1 = test: as above
In short: as §2

THP-1 = test: as above
In short: as §2

HL-60 [5] = test: area under dose-response curve (viability, 1 nM-10 uM) (fraction (0-1)); higher = more sensitive
In short: as §1

OCCN1C[C@H](O)[C@@H](O)[C@H](O)[C@H]1CO [Miglitol]
Conditions	IC50 (cell viability) [µM]
MV4-11 [1]	> 10

cell viability [%], HL-60 [2]
Conditions	0.001 µM	0.01 µM	0.1 µM	1 µM	10 µM
co-treatment: AZD3965 100 nM	100.7 ± 0.68	103.6 ± 0.14	94.8 ± 14	102 ± 2.9	100.28 ± 0.095
co-treatment: DMSO vehicle	96 ± 3.3	101 ± 2.5	96.3 ± 4.1	94.9 ± 8.1	99.54 ± 0.43
co-treatment: GSK2194069 100 nM	99.52 ± 0.9	109 ± 3	91.7 ± 16	97.8 ± 7.8	109 ± 7.6
co-treatment: pictilisib 100 nM	97.8 ± 6.1	104 ± 3.2	86.9 ± 14	98.1 ± 6.2	106 ± 1.8

Conditions	area under dose-response curve, co-treatment: AZD3965 100 nM	area under dose-response curve, co-treatment: DMSO vehicle	area under dose-response curve, co-treatment: GSK2194069 100 nM	area under dose-response curve, co-treatment: pictilisib 100 nM	cell viability, 1 nM [%]	cell viability, 10 nM [%]	cell viability, 100 nM [%]	cell viability, 1000 nM [%]	cell viability, 10000 nM [%]
BV-173	–	–	–	–	90.6	110	89.7	94.6	105
HEL	–	–	–	–	107	101	86.5	96.7	101
HL-60 [3]	–	–	–	–	86.9	95.7	93.1	105	87.2
HL-60 [5]	< 0.0301	< 0.0301	< 0.0301	< 0.0301	–	–	–	–	–
K-562	–	–	–	–	97.8	98.5	83.5	108	102
KCL-22	–	–	–	–	91.5	108	96.6	95.9	106
KG-1	–	–	–	–	101	95.7	91.9	94.7	101
KU-812	–	–	–	–	101	103	86.9	98.3	96
LAMA-84	–	–	–	–	97	97.8	101	98.5	93.6
ML-2	–	–	–	–	95.4	104	89.3	96	105
MOLM-13	–	–	–	–	92.1	91.3	93	123	99.1
MV4-11 [4]	–	–	–	–	102	97	90.4	106	106
Mono-Mac-6	–	–	–	–	106	102	98.1	91.3	99.1
NOMO-1	–	–	–	–	98.2	102	100	93.7	98.5
SHI-1	–	–	–	–	102	109	105	92.8	103
THP-1	–	–	–	–	102	106	100	95.9	101
